Our source for the mutagenic call values is PubChem BioAssay AID1259407 (Chemical Carcinogenesis Research Information System (CCRIS), 2018).

The test system of the series is CCRIS mutagenicity, Ames/micronucleus/aberration tests. Kind of series: CCRIS mutagenicity studies.
Where [1] appears, read: Test System: AMES SALMONELLA TYPHIMURIUM, Strain/Indicator: TA98, Metabolic Activation: NONE, Method: PREINCUBATION
The mark [2] stands for this setting: Test System: AMES SALMONELLA TYPHIMURIUM, Strain/Indicator: TA98, Metabolic Activation: NONE, Method: STANDARD PLATE.
The mark [3] stands for this setting: Test System: AMES SALMONELLA TYPHIMURIUM, Strain/Indicator: TA100, Metabolic Activation: NONE, Method: STANDARD PLATE.

Calls of active or inactive are those of the source. No rule for the calls is given here.

`CN(Cc1cnc2nc(N)nc(N)c2n1)c1c(Cl)cc(C(=O)N[C@@H](CCC(=O)O)C(=O)O)cc1Cl`: the mutagenic call was “inactive; negative” (Test System: AMES SALMONELLA TYPHIMURIUM, Strain/Indicator: TA97, Metabolic Activation: HAMSTER, LIVER, S-9, AROCLOR 1254 (10 OR 30%), Method: PREINCUBATION); “inactive; negative” (Test System: AMES SALMONELLA TYPHIMURIUM, Strain/Indicator: TA97, Metabolic Activation: NONE, Method: PREINCUBATION); “inactive; negative” (Test System: AMES SALMONELLA TYPHIMURIUM, Strain/Indicator: TA97, Metabolic Activation: RAT, LIVER, S-9, AROCLOR 1254 (10 OR 30%), Method: PREINCUBATION); “inactive; negative” (Test System: AMES SALMONELLA TYPHIMURIUM, Strain/Indicator: TA98, Metabolic Activation: HAMSTER, LIVER, S-9, AROCLOR 1254 (10 OR 30%), Method: PREINCUBATION); “inactive; negative” under setting [1]; “inactive; negative” (Test System: AMES SALMONELLA TYPHIMURIUM, Strain/Indicator: TA98, Metabolic Activation: RAT, LIVER, S-9, AROCLOR 1254 (10 OR 30%), Method: PREINCUBATION). Moreover, the mutagenic call is, setting by setting: (Test System: AMES SALMONELLA TYPHIMURIUM, Strain/Indicator: TA100, Metabolic Activation: HAMSTER, LIVER, S-9, AROCLOR 1254 (10 OR 30%), Method: PREINCUBATION) “inactive; negative”; (Test System: AMES SALMONELLA TYPHIMURIUM, Strain/Indicator: TA100, Metabolic Activation: NONE, Method: PREINCUBATION) “inactive; negative”; (Test System: AMES SALMONELLA TYPHIMURIUM, Strain/Indicator: TA100, Metabolic Activation: RAT, LIVER, S-9, AROCLOR 1254 (10 OR 30%), Method: PREINCUBATION) “inactive; negative”; (Test System: AMES SALMONELLA TYPHIMURIUM, Strain/Indicator: TA1535, Metabolic Activation: HAMSTER, LIVER, S-9, AROCLOR 1254 (10 OR 30%), Method: PREINCUBATION) “inactive; negative”; (Test System: AMES SALMONELLA TYPHIMURIUM, Strain/Indicator: TA1535, Metabolic Activation: NONE, Method: PREINCUBATION) “inactive; negative”; (Test System: AMES SALMONELLA TYPHIMURIUM, Strain/Indicator: TA1535, Metabolic Activation: RAT, LIVER, S-9, AROCLOR 1254 (10 OR 30%), Method: PREINCUBATION) “inactive; negative”. In addition, the mutagenic call was “inactive; negative” (Test System: AMES SALMONELLA TYPHIMURIUM, Strain/Indicator: TA1537, Metabolic Activation: HAMSTER, LIVER, S-9, AROCLOR 1254 (10 OR 30%), Method: PREINCUBATION); “inactive; negative” (Test System: AMES SALMONELLA TYPHIMURIUM, Strain/Indicator: TA1537, Metabolic Activation: NONE, Method: PREINCUBATION); “inactive; negative” (Test System: AMES SALMONELLA TYPHIMURIUM, Strain/Indicator: TA1537, Metabolic Activation: RAT, LIVER, S-9, AROCLOR 1254 (10 OR 30%), Method: PREINCUBATION).

Take `Nc1cccc2nc3c(N)cccc3nc12`: the mutagenic call under setting [1] was “active; positive” and the mutagenic call (Test System: AMES SALMONELLA TYPHIMURIUM, Strain/Indicator: TA98, Metabolic Activation: RAT, LIVER, S-9, PCB, Method: PREINCUBATION) is “inactive; negative”.

With `N[C@@H](CSC(F)(F)C(F)F)C(=O)O`, the mutagenic call was “inactive; negative” (Test System: AMES SALMONELLA TYPHIMURIUM, Strain/Indicator: TA100, Metabolic Activation: RAT, KIDNEY, S-9, AROCLOR 1254, Method: STANDARD PLATE) and “inactive; negative” (Test System: AMES SALMONELLA TYPHIMURIUM, Strain/Indicator: TA2638, Metabolic Activation: NONE, Method: PREINCUBATION).

Consider `CC(Oc1ccc(Cl)cc1Cl)C(=O)O` (stereo unspecified), for which the mutagenic call (Test System: AMES SALMONELLA TYPHIMURIUM, Strain/Indicator: TA97, Metabolic Activation: NONE, Method: STANDARD PLATE) is “inactive; negative”; the mutagenic call (Test System: AMES SALMONELLA TYPHIMURIUM, Strain/Indicator: TA97, Metabolic Activation: RAT, LIVER, S-9, AROCLOR 1254, Method: STANDARD PLATE) was “inactive; negative”; the mutagenic call under setting [2] was “inactive; negative”; the mutagenic call (Test System: AMES SALMONELLA TYPHIMURIUM, Strain/Indicator: TA98, Metabolic Activation: RAT, LIVER, S-9, AROCLOR 1254, Method: STANDARD PLATE) was “inactive; negative”; the mutagenic call under setting [3] is “inactive; negative”; the mutagenic call (Test System: AMES SALMONELLA TYPHIMURIUM, Strain/Indicator: TA100, Metabolic Activation: RAT, LIVER, S-9, AROCLOR 1254, Method: STANDARD PLATE) was “inactive; negative”. The mutagenic call runs as follows: (Test System: AMES SALMONELLA TYPHIMURIUM, Strain/Indicator: TA102, Metabolic Activation: NONE, Method: STANDARD PLATE) “inactive; negative”; (Test System: AMES SALMONELLA TYPHIMURIUM, Strain/Indicator: TA102, Metabolic Activation: RAT, LIVER, S-9, AROCLOR 1254, Method: STANDARD PLATE) “inactive; negative”.

For `Nc1cc([N+](=O)[O-])c(C(=O)O)c([N+](=O)[O-])c1`, the mutagenic call (End Point: In vitro chromosomal aberrations, Test System: V79 Chinese hamster fibroblasts, Metabolic Activation: None) is “inactive; negative”; the mutagenic call (End Point: In vitro micronucleus, Test System: HepG2 human hepatoma cells, Metabolic Activation: None) was “active; positive”; the mutagenic call (Test System: Ames Salmonella typhimurium, Strain/Indicator: TA98, Metabolic Activation: None, Method: Standard plate) is “active; positive”; the mutagenic call (Test System: Ames Salmonella typhimurium, Strain/Indicator: TA98, Metabolic Activation: Rat, Liver, S-9, Method: Standard plate) is “active; positive”; the mutagenic call (Test System: Ames Salmonella typhimurium, Strain/Indicator: TA98NR, Metabolic Activation: None, Method: Standard plate) was “active; positive, ta98nr is the nitroreductase-deficient derivative of ta98”; the mutagenic call (Test System: Ames Salmonella typhimurium, Strain/Indicator: TA100, Metabolic Activation: None, Method: Standard plate) was “active; positive”. The mutagenic call (Test System: Ames Salmonella typhimurium, Strain/Indicator: TA100, Metabolic Activation: Rat, Liver, S-9, Method: Standard plate) is “active; positive”.

As to `O=C(Nc1ccc(Br)cc1)c1csc([N+](=O)[O-])c1`, the mutagenic call under setting [2] was “active; positive” and the mutagenic call under setting [3] is “active; positive”.
